{"source": "patent US20200368247A1", "about": "“CENICRIVIROC FOR THE TREATMENT OF FIBROSIS” (Tobira Therapeutics, Inc., priority 2014, published 2020)", "key": {"CCR2": {"target": "T1, CCR2 (Homo sapiens, UniProt P41597)", "T1 construct": "endogenous in cells; host or cells: monocytes within PBMCs from HIV+ and HIV- subjects", "T1 sequence (P41597 1-360 isoform P41597-2)": "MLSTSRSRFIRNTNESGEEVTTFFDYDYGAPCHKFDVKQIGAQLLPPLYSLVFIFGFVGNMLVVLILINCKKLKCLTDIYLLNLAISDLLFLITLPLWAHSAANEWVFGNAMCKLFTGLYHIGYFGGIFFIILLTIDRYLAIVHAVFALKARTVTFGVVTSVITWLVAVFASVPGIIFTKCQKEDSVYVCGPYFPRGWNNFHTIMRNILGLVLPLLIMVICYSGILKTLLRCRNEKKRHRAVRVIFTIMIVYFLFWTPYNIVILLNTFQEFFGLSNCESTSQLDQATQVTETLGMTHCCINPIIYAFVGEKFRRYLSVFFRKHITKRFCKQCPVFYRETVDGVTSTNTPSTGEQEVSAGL", "test": "CCR2 receptor occupancy / MCP-1-induced CCR2 internalization in PBMCs, flow cytometry", "assay_type": "cell-based", "description": "(§1) The capacity of each drug to inhibit CCR5 or CCR2 internalization was evaluated. Cell-surface expression of CCR5 and CCR2 was assessed by flow cytometry, and fluorescence values were converted into molecules of equivalent soluble fluorescence (MESF)."}, "CCR5 [1]": {"target": "T2, CCR5 (Homo sapiens, UniProt P51681)", "T2 sequence (P51681 whole entry)": "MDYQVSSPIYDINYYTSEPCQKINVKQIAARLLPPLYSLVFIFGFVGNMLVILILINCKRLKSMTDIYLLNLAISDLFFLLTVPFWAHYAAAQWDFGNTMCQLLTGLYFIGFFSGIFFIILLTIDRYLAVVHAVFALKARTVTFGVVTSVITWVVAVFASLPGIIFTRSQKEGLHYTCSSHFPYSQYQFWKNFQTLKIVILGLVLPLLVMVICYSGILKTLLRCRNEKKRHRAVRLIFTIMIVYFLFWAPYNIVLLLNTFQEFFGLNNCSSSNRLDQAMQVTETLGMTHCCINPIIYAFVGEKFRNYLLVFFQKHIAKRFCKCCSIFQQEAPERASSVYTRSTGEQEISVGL", "test": "Inhibition of ligand binding to CCR5-expressing CHO cells"}, "CCR5 [2]": {"target": "T2, CCR5", "test": "CCR5 receptor occupancy / RANTES-induced CCR5 internalization in PBMCs, flow cytometry", "assay_type": "cell-based", "conditions": "at saturating concentration", "description": "as §1"}, "HIV-1 BaL": {"system": "HIV-1 BaL", "test": "PM-1 cells exposed to HIV-1 BaL: virus in culture fluids (qRT-PCR, p24) and intracellular strong-stop DNA", "assay_type": "cell-based", "conditions": "4 hrs", "from_the_text": "Cells. PM-1 cells that express CD4, CCR5, and CXCR4 were maintained in RPMI-1640 medium containing 10% fetal bovine serum (R10 medium) at 37 C, 5% CO2. 293T cells used for transfection were maintained in DMEM at 10% FBS, L-glutamine, and antibiotics (D10 medium) at 37 C, 5% CO2. Virus Stocks. HIV-1 BaL virus was produced by transfecting 293T cells with the plasmid pWT/BaL. Lipofectamine 2000 was used as a transfection agent. Culture supernatants were collected at 48 hrs post-transfection, filtered through a 0.45 μm pore filter, and treated with 50 units of benzonase per ml of virus stock for 20 minutes at 37 C to remove contaminating plasmid DNA. […]\nBoth drugs were incubated with PM-1 cells for 1 hr at 37 C prior to the addition of virus. […] Viral adsorption was measured in the no-drug controls, whereby 500 ng of p24 Ag of HIV-1 Bal were added per 5×10^5 PM-1 cells that were pre-incubated at 37 C for 1 hr in the absence of drug treatment. […] Supernatant viral loads were measured using quantitative real-time reverse transcription PCR (qRT-PCR) with the primers US1SSF (5′-ΔΔ[…]-3′), US1SSR (5′-[…]-3′) and US1SS probe (5′-(FAM) […]) and the Invitrogen qRT-PCR Supermix Kit. […] RNA copy number was quantified by use of 10-fold serial dilutions of pBaL/wt to generate standard curves for each assay and calibrated against samples with known copy numbers from previous studies. […]"}}, "data": [{"compound": "CSc1ccc(C(=O)N[C@@H]2CCCC[C@@H]2NC(=O)CNC(=O)c2cc(C(F)(F)F)ccc2NC(=O)NC(C)C)cc1", "note": "[BMS-22, reference compound]", "values": [{"measurement": "concentration required to reach >80% receptor occupancy", "setting": "CCR2; CCR2, average", "result": 18, "unit": "nM"}, {"measurement": "CCR2 cell-surface expression", "setting": "CCR2; in the absence of MCP-1, monocytes", "result": "slightly increased"}]}, {"compound": "CCCCOCCOc1ccc(-c2ccc3c(c2)C=C(C(=O)Nc2ccc(SC)cc2)CCCN3CC(C)C)cc1", "note": "[M-II]", "values": [{"measurement": "IC50, inhibition of binding of RANTES to CCR5-expressing cells", "setting": "CCR5 [1]; CHO cells", "result": "no effect"}]}, {"compound": "CCCCOCCOc1ccc(-c2ccc3c(c2)C=C(C(=O)Nc2ccc(S(=O)(=O)Cc4cncn4CCC)cc2)CCCN3CC(C)C)cc1", "note": "[M-I]", "values": [{"measurement": "IC50 relative to the IC50 of CVC", "setting": "CCR5 [1]; RANTES binding to CCR5-expressing cells", "result": "approximately 2 fold"}]}, {"compound": "Maraviroc [MVC]", "values": [{"measurement": "CCR5 receptor occupancy", "setting": "CCR5 [2]; CD4+ T cells", "result": "~86", "unit": "%"}, {"measurement": "CCR5 receptor occupancy", "setting": "CCR5 [2]; CD8+ T cells", "result": "~87", "unit": "%"}, {"measurement": "p24 antigen level in culture fluids", "setting": "HIV-1 BaL; CVC 20 nM, MVC 50 nM, baseline 506", "result": 520, "unit": "ng/mL"}, {"measurement": "relative intracellular strong-stop HIV DNA level compared to no drug control", "setting": "HIV-1 BaL; PM-1 cells", "result": 0.02}]}]}
